{"source": "patent US20260226048A1", "about": "“MULTI-CYCLIC IRAK AND FLT3 INHIBITING COMPOUNDS AND USES THEREOF” (CHILDREN'S HOSPITAL MEDICAL CENTER, priority 2023, published 2026)", "key": {"[1]": {"target": "T1, IRAK4 (Homo sapiens, UniProt Q9NWZ3)", "T1 sequence (Q9NWZ3 1-460)": "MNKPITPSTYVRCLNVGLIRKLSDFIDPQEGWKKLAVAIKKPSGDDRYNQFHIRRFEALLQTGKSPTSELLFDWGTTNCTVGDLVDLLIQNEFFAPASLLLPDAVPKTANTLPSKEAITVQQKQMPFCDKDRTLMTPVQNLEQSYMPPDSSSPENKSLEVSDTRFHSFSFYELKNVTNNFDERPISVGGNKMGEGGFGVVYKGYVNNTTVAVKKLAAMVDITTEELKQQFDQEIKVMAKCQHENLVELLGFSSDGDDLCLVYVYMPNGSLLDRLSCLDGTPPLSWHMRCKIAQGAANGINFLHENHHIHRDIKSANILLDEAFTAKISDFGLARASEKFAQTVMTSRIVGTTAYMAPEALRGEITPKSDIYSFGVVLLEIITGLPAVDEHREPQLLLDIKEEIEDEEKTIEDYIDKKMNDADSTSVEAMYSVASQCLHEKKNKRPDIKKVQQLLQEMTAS", "test": "RBC HotSpot Kinase Assay, IRAK4", "format": "biochemical", "parameters": "purchased Reaction Biology (RBC HotSpot)", "settings": "isolated kinase enzyme, 33P-ATP, P81 filter-binding", "procedure,_shortened": "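Radiometric filter-binding activity assay with isolated recombinant kinase (construct may be truncated or catalytic domain only) in 20 mM Hepes pH 7.5, 10 mM MgCl2, 1 mM EGTA, 2 mM DTT, 1% DMSO. Compound preincubated 20 min with kinase/substrate; reaction started with 33P-ATP, run 2 h at room temperature.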"}, "[2]": {"system": "THP1 cells (FLT3 WT)", "test": "Combination drug screening with venetoclax in THP1 cells (Cell Titre Glo, 10 × 10)", "format": "cell-based", "procedure": "(§1) These assays were performed using the Cell Titre Glo assay, measured at 48 hours.\n(§2) A smaller concentration indicates higher potency to synergize with Venetoclax."}, "[3]": {"system": "MOLM14-D835Y cells (FLT3-ITD (D835Y) mutant)", "test": "Combination drug screening with venetoclax in MOLM14 (D835Y) cells (Cell Titre Glo, 10 × 10)", "format": "cell-based", "parameters": "Excess HSA (sum excess HSA score, combination with venetoclax): scale not given here", "procedure": "as §1, §2"}, "[4]": {"system": "MOLM14 F691L cells", "test": "MOLM14 F691L cell viability assay (Cell Titer Glo)", "format": "cell-based", "settings": "Homo sapiens, MOLM-14; cell viability, Cell Titer Glo, 48 hours; read-out: MOLM14 F691L IC50", "procedure,_shortened": "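MOLM14 cells with FLT3 D835Y or F691L kinase-domain resistance mutations seeded at 1000 cells/well and exposed to compound for 48 h under standard incubator conditions. Viability read by CellTiter-Glo luminescence after 15 min at room temperature.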"}, "[5]": {"settings": "10 × 10 dataset, Cell Titre Glo at 48 hours, optimal of 4 dose combinations, negative = synergy"}}}
{"molecule": "CC(C)(O)c1cn2c(-c3nc(N[C@H]4CNCC[C@@H]4F)ncc3F)cnc2cn1", "note": "[Compound 100a, 2-(3-(5-fluoro-2-(((3S,4S)-4-fluoropiperidin-3-yl)amino)pyrimidin-4-yl)imidazo[1,2-a]pyrazin-6-yl)propan-2-ol]", "values": [{"measurement": "IC50", "setting": "[1]", "result": 2, "unit": "nM"}, {"measurement": "Excess HSA (sum excess HSA score, combination with venetoclax)", "setting": "[2]; [5]", "result": "−1080"}, {"measurement": "Concentration needed to decrease the 312.5 nM Venetoclax response to <20%", "setting": "[2]; Cell Titer Glo at 48 hours", "result": 10, "unit": "µM"}, {"measurement": "Excess HSA (sum excess HSA score, combination with venetoclax)", "setting": "[3]; [5]", "result": "−1548"}, {"measurement": "Concentration of a compound of the disclosure, or gilteritinib, needed to decrease the 62.5 nM Ven response to <10% in MOLM14(D835Y) cells", "setting": "[3]; combination with 62.5 nM Venetoclax, Cell Titer Glo, 48 hours, response <10%", "result": 625, "unit": "nM"}, {"measurement": "IC50", "setting": "[4]", "result": 603, "unit": "nM"}]}
